Assays:
[1] = system: Murine sarcoma 180 cells (subcutaneous tumors); assay: In vivo photodynamic therapy study in tumor-bearing mice; design: species or system male ICR mice; conditions: 10 mg/kg intraperitoneal
Excerpt: Oligoanilines that show efficacy in preliminary studies can be further tested to confirm their efficacy by an in vivo assay on tumor-bearing mice. For example, see Chiang, et al. Proc. Electrochem. Soc., 1999, 99-12, 238-249. More specifically, a tumor-bearing mouse can be first administered with an oligoaniline to be tested in PBS close to the tumor site. The mouse is then kept in the dark while the oligoaniline is circulated to the tumor site. The tumor site is exposed by removing the hair on and around it, and then irradiated with a laser beam or other light source. After the irradiation, the growth of the tumor in the mouse is examined at different time intervals. The inhibitory effect can be evaluated by measuring the body weights of the mouse and the volumes of the tumor. After the mouse is sacrificed, the final body weight, the weights of various organs, and the final volume and weight of the tumor are measured; and blood is collected for biochemistry and hematology analyses. The data are evaluated used to determine the photodynamic therapeutic and other effects. […]
The mice in groups (1) and (2) were subsequently kept in the dark for 24 hours, and then anesthetized with avertine (0.3 mL/head). […] After the irradiation, the body weights and tumor volumes of the mice were measured every 5 days for 30 days. […]

[2] = system: Fibrosarcoma cells (CCRC60037) and sarcoma 180 cells; assay: In vitro irradiation-induced cytotoxicity based on tumor cell viability (MTT/formazon)
Procedure: An in vitro inhibition assay can be performed to preliminarily evaluate an oligoaniline's ability to inhibit the growth of tumor cells. For example, an oligoaniline solution is added to a pre-incubated cell suspension. Subsequently, the cell suspension is irradiated with fluorescence light, followed by further incubation. A 3-(4,5-dimethylthiazol-2-yl)-2,5-diphenyl-tetrazolium bromide solution is then added to the cell suspension to react with mitochrondrial dehydrogenase to form formazon, which is extracted with dimethyl sulfoxide (DMSO). The DMSO extract solution is immediately used for optical measurement to determine the formazon quantity, which correlates with the quantity of dehydrogenase or the relative number of the living cells.
Two types of tumor cells used in this study were prepared as follows: Fibrosarcoma cells (CCRC60037) and sarcoma 180 cells (obtained form Biochemical Institute of Chung Shan Medical and Dental College, Taiwan) were maintained and cultured in an cc-modified eagle medium (MEM) containing L-glutamine and phenol red, 10% fetal bovine serum, and antibiotics (100 units/mL of penicillin G and 100 μg/mL streptomycin sulfate). The cells were incubated in the dark in 95% humidified air plus 5% CO2, harvested by treatment with trypsin-EDTA, and then suspended in an α-MEM at the concentration of 1×10^4 cells/mL.
The cell suspension thus obtained was placed in wells of a 24-well plate (500 μL each) and pre-incubated at 37° C. for 24 hours. A16S solutions of various concentrations (0-10 μM) were then added to the wells (500 μL each). The wells were irradiated with fluorescence light (27 watts) for 0-60 minutes. The distance between the plate cover and the light source was 5-6 cm. After irradiation, the cells were further incubated for 48 hours. A solution of 3-(4,5-dimethylthiazol-2-yl)-2,5-diphenyl-tetrazolium bromide (0.5% in PBS; 100 μL each) was then added to each cell suspension, thereby causing the cells to produce formazon. After incubation at 37° C. for 3 hours, the suspension medium was discarded. Formazon formed in the cells from each well was extracted with DMSO (1.0 mL), and the DMSO extract solution was immediately measured for absorbance at […]. The absorbance directly correlated with the quantity of formazon, and thus with the quantity of dehydrogenase enzyme or the relative number of the living cells (i.e., viability). […] A maximal photodynamic cytotoxicity efficacy of >90% was obtained at an A16S concentration of 5.0-10.0 μM and an irradiation time of 60 minutes.

[3] = system: ferricytochrome C; assay: In vitro irradiation-induced superoxide generation (ferricytochrome C reduction); assay type: biochemical; conditions: 25 μM A16S aqueous solution, fluorescence light 27 watts, irradiation time 0, 30, 60, 90 minutes
Procedure: The mixture thus obtained was added into wells of a 24-well plate, and exposed to fluorescence light source (27 watts) for 0-90 minutes. The distance between the plate cover and the light source was 5-6 cm. The reduction extent of ferricytochrome C was evaluated based on its absorbance at 550 nm, which corresponded to the increase of the quantity of reduced ferrocytochrome C.

Sulfobutylated Hexadecaaniline [A16S]
average tumor weight relative to tumor control group ([1]; laser 633 nm 100 J/cm^2, day 30): about 40%
tumor growth rates versus tumor control group ([1]; laser 633 nm 100 J/cm^2, entire 30 day study period): much lower
cell viability ([2]; A16S 0-10 μM, fluorescence light 27 watts, irradiation 0-60 minutes, 48 hours further incubation): decreased as the A16S dosage and irradiation time increased
maximal photodynamic cytotoxicity efficacy ([2]; A16S 5.0-10.0 μM, irradiation time 60 minutes): > 90%
IC50 ([2]; irradiation time 60 minutes): 1000 nM
viable cells ([2]; irradiation time 60 minutes, A16S concentration increased from 0 to 2.5 μM): a sharp loss of viable cells was observed
cytotoxicity in the absence of light irradiation ([2]; no irradiation, highest A16S concentration 10.0 μM): no cytotoxicity was observed
amount of superoxide free radicals (ferrocytochrome C absorbance at 550 nm) [3]: increased as the irradiation time increased

Reference: US20020155088A1, “Tumor treatment by using oligoaniline” (priority 2001, published 2002)
